Laboratory results: patent US12612525B2, “Amine compound, reactive coalescing agent, coating composition, coating layer and related methods” (Agency for Science, Technology and Research, priority 2020, dated 2026)
Read-outs that look alike come from different tables or passages of the source.

Tests used:
[1] = Water solubility of ACAs (Table 1); type: physicochemical; conditions: in water
[2] = Boiling point determination of ACAs; type: physicochemical
Protocol: Amine based reactive coalescing agents were synthesized via an atom efficient aza-Michael addition reaction of secondary amine to different acrylate/acrylamide monomers such as 2-hydroxyethyl acrylate, 2-hydroxypropyl acrylate, 2-ethylhexyl acrylate, ^nbutyl acrylate, and N-hydroxyethyl acrylamide etc (Table 1 and Scheme 2). The reactions were carried out neat or in water (in some cases, in the presence of 10% ceric ammonium nitrate (CAN) catalyst) at room temperature (RT)-80° C. to yield 80% to 95% conversion. Finally, the ACAs were purified by column chromatography and characterized by ^1H-NMR and ^13C-NMR spectroscopy, and elemental microanalysis (as will be shown in Examples 3.1 to 3.5). Other characterizations include determination of boiling point, volatility (% wt loss when heated at 110±5° C. for 1 hour as per USA EPA 24 method), and plasticizing effect, i.e. reduction of minimum film formation temperature (MFFT) of commercial latices.
Characterization studies were performed on the ACA examples to determine their boiling points and volatility (% wt loss when heated at 110±5° C. for 1 hour as per USA EPA 24 method).

[3] = Accelerated release study: coalescing agent blended with latex IRS-129, film heated at 110° C., 1H NMR; conditions: 2 wt % in IRS-129 latex, dried 2 days at room temperature, powder heated at 110° C. in convection oven
Protocol: At first, ACA4 (2 wt % with respect to latex) was first blended with IRS-129 latex (containing —COOH groups) using dispermat (LC75-E) and the mixture was allowed to dry at room temperature for 2 days. Then, the polymer film was grounded to make powder and then heated at 110° C. in a convection oven, i.e. accelerated evaporation (as illustrated in FIG. 6). Accelerated evaporation was used in this study instead as natural release is time consuming and gas analysis is difficult.
Samples were collected time to time, dissolved in NMR solvent and analyzed by ^1H NMR spectroscopy (with 25 mg of sample, 0.8 mL of CDCl3, and 25 μL of DMF/CDCl3 as internal standard). High boiling commercial coalescing agent, 1-Phenoxy-2-propanol (PPH) (b.p. 243° C.) was used as control.

[4] = Stabilization of polymer on heating; conditions: IRS-129 heated at 100° C. for 4 days
[5] = commercial coalescing agent used as control; cited from earlier work

SMILES	Water Solubility [1]	b.p. [2]	Presence of coalescing agent in polymer film after heating (1H NMR) [3]	Stabilisation of latex polymer against oxidation/coloration [4]	b.p. [5]
O=C(CCN(Cc1ccccc1)Cc1ccccc1)OCCO [ACA4]	<0.06%	292-297 °C	remain present even after 4 days of heating	helps to stabilise or reduce oxidation/coloration of the polymer	–
C=C(C)C(=O)OCCOC(=O)CCN(Cc1ccccc1)Cc1ccccc1 [ACA15]	–	251-254 °C	–	–	–
CCOCCOCCOC(=O)CCN(Cc1ccccc1)Cc1ccccc1 [ACA16]	–	348-355 °C	–	–	–
CC(O)COc1ccccc1 (centres unmarked) [PPH, 1-Phenoxy-2-propanol, reference compound]	–	–	completely evaporated out from the polymer after 2 days of heating	–	243 °C
